PubChem BioAssay (NCI)
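Each compound was tested at five concentrations against cells in 96-well plates for 48 hours. At the TGI there is no net growth.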

Assays:
Assay in all cases: NCI tumour cell line growth inhibition, 48 h
T-47D breast = system: T-47D breast
NCI-H23 lung = system: NCI-H23 lung
OVCAR-5 ovarian = system: OVCAR-5 ovarian
MOLT-4 leukemia = system: MOLT-4 leukemia
PC-3 prostate = system: PC-3 prostate
CAKI-1 renal = system: CAKI-1 renal
HOP-62 NSCLC = system: HOP-62 NSCLC
NCI/ADR-RES ovarian = system: NCI/ADR-RES ovarian
UO-31 renal = system: UO-31 renal
A549 NSCLC = system: A549 NSCLC

SMILES | TGI (T-47D breast) [µM] | TGI (NCI-H23 lung) [µM] | TGI (OVCAR-5 ovarian) [µM] | TGI (MOLT-4 leukemia) [µM] | TGI (PC-3 prostate) [µM] | TGI (CAKI-1 renal) [µM] | TGI (HOP-62 NSCLC) [µM] | TGI (NCI/ADR-RES ovarian) [µM] | TGI (UO-31 renal) [µM] | TGI (A549 NSCLC) [µM]
C/C(C[n+]1ccccc1)=N\N=C(N)N | > 100 | > 100 | > 100 | > 100 | > 100 | > 100 | > 100 | > 100 | > 100 | > 100
CCOC(=O)c1cccc(N=Nc2nc[nH]c2/C=C/C(=O)OC)c1 | > 100 | > 100 | > 100 | 40.2 | > 100 | > 100 | > 100 | > 100 | > 100 | > 100
CC(c1ccccc1)N1CCN(C(C)c2ccccc2)CC1 (stereo not given) | > 100 | > 100 | > 100 | > 100 | > 100 | > 100 | > 100 | > 100 | > 100 | > 100
Cc1c(/C=N\NC(=S)NCCNC(=S)N/N=C\c2c(C)n(C)n(-c3ccccc3)c2=O)c(=O)n(-c2ccccc2)n1C | > 100 | > 100 | > 100 | > 100 | > 100 | > 100 | > 100 | > 100 | > 100 | > 100
Cc1c2cc[n+](C)c(C)c2cc2c1[nH]c1ccccc12 | 10.4 | 16.3 | 82.6 | 75.2 | > 100 | > 91.9 | 37.5 | > 93.4 | > 100 | 68.7
CCNC(=S)NNC(=O)C12CC3CC(CC(C3)C1)C2 | > 100 | > 100 | > 100 | > 100 | > 100 | > 100 | > 100 | > 100 | > 100 | > 100
C[C@H](CCC(=O)O)[C@H]1CC[C@H]2[C@@H]3C(=O)C[C@@H]4C[C@H](O)CC[C@]4(C)[C@H]3C[C@H](O)[C@]12C | > 100 | > 100 | > 100 | > 100 | > 100 | > 100 | > 100 | > 100 | > 100 | > 100
Cc1ccc(C2=CC(=O)OC(C[P+](c3ccccc3)(c3ccccc3)c3ccccc3)(c3ccccc3)O2)cc1 (stereo not given) | 41.1 | 27.2 | 42.7 | 67 | 49 | 29.3 | 34.9 | 40.2 | 30.9 | 34.3
CC1(C)[C@@H]2CC[C@@]1(C)CN(CCC[N+](C)(C)C)C2 | > 100 | > 100 | > 100 | > 100 | > 100 | > 100 | > 100 | > 100 | > 100 | > 100
O=C(NCP(=O)(Oc1ccccc1)Oc1ccccc1)OCc1ccccc1 | > 100 | > 100 | > 100 | > 100 | > 100 | > 100 | > 100 | > 100 | > 100 | > 100
O=C1NC(N2CCOCC2)=N/C1=C\c1ccco1 | > 100 | > 100 | > 100 | > 100 | > 100 | > 100 | > 100 | > 100 | > 100 | > 100
COc1ccc(C2OC(c3ccncc3)=NN2C)cc1F (stereo not given) | > 100 | > 100 | > 100 | > 100 | > 100 | > 100 | > 100 | > 100 | > 100 | > 100
O=C(/C=C/c1ccccc1)Oc1ccc(C(=O)/C=C/c2ccccc2)cc1 | 15.6 | 22.4 | 21.4 | 16.8 | > 64.9 | 19.8 | 21.6 | 21.9 | 15.3 | > 89.1
Clc1ccc(-c2nnc3sc4nc5ccccc5c-4nn23)c(Cl)c1 | > 100 | > 100 | > 100 | > 100 | > 100 | > 100 | > 100 | > 100 | > 100 | > 100
CC(C)SC(=S)Sc1c(Cl)c(Cl)nc(Cl)c1Cl | 4.39 | 29 | 33.1 | 8.69 | 16 | 8.49 | 18.4 | 61.2 | 21.2 | 40.8
CCCCCCCCCCCC[S+](C)C | 3.37 | 19.7 | 22.5 | 28.2 | 9.92 | 10.3 | 1.52 | > 91.9 | 27.2 | 26.1
O=C1NC2c3c(I)sc(I)c3C(O)C2O1 (stereo not given) | > 100 | > 100 | > 100 | > 100 | > 100 | > 100 | > 100 | > 100 | > 100 | > 100
